# Measured values taken from patent publication US10959993B2, “Combination of Bcl-2 inhibitor and MEK inhibitor for the treatment of cancer” (Genentech, Inc., priority 2015, dated 2021).
# Columns and labels:
# [1] = test system: OCI-AML3/Luc/GFP cells; assay: OCI-AML3/Luc/GFP AML model in NSG mice; type: in vivo; details: compared to controls, more prominently in cobimetinib single agent and co-treated mice
# Description: (§1) OCI-AML3/Luc/GFP cells (1×10^6 per mouse) were injected intravenously into NSG mice. (FIG. 5A) The luciferase intensity was quantified by serial bioluminescence imaging from 8 representative mice from 4 groups at week 5 post injection. (FIG. 5B) Overall survival rate in each group was estimated by the Kaplan-Meier method. 1×10^6 MOLM13-luci-GFP cells were injected into NSGS mice. Leukemia engraftment was confirmed on day 3 using Bioluminescence imaging (BLI). Mice were orally dosed daily with cobimetinib (10 mg/kg) or venetoclax (100 mg/kg) or in combination for 14 days. Luciferase intensity was shown on day 17 (FIG. 5C). Human CD45 engraftment in BM and spleen was determined by CyTOF. (FIG. 5D). The viable cell count was measured using Vi-Cell. (FIG. 5E). * *P: 0.01, ***P: 0.001.
# (§2) We next investigated signaling patterns and Bcl-2 family protein expression in AML stem/progenitor cells using a 34-antibody panel and time-of-flight mass cytometry (CyTOF). CyTOF is a variation of flow cytometry in which antibodies are labeled with heavy metal ion tags rather than fluorochromes. Readout is by time-of-flight mass spectrometry. This allows for the combination of many more antibody specificities in single samples, without significant spillover between channels. […]
# [2] = target: T1, Bcl-2:BIM complex (Homo sapiens, UniProt P10415); assay: MSD ELISA of Bcl-2:BIM complex; type: cell-based; details: 1×IC50, 4 hrs, preliminary MSD data
# T1 construct: endogenous in cells; host or cells: AML cell lines (OCI-AML3 is the only one named for this read-out)
# Description: (§3) Representative proteins that are differentially expressed between combination-sensitive and combination-resistant cells were shown. (FIG. 3E) The Bcl-2:BIM complex was measured by the MSD ELISA assay in AML cell lines, untreated, treated with venetoclax alone, treated with cobimetinib alone, or treated with cobimetinib/venetoclax at 1×IC50 values for 4 hrs.
# (§4) Ongoing analysis of pharmacodynamic markers include transcriptome assessment by RNA sequencing, functional proteomics by reverse phase protein array (RPPA), and quantification of Bcl-2:BIM and MCL-1:BIM complexes using the electrochemiluminescent ELISA assay (Meso Scale Discovery, MSD-ELISA). RPPA is a high-throughput technology that performs protein assays on thousands of samples simultaneously. This protein array platform measures levels of protein expression, as well as protein modifications such as phosphorylation.
# Representative proteins that are differentially expressed in sensitive and resistant cell lines to the combination. (FIGS. 3A, 3B, 3C, and 3D). […] (FIG. 3E).
# [3] = test system: AML cell lines; assay: Reverse phase protein array (RPPA) of sensitive v. resistant cell lines; type: cell-based; design: p16INK4a Mean. Res / p16INK4a Mean. Sens / p53 Mean. Res / p53 Mean. Sens / Bax Mean. Res / Bax Mean. Sens / Bim Mean. Res / Bim Mean. Sens / bRaf (T401) Mean. Res / bRaf (T401) Mean. Sens / Bcl-2 Mean. Res / Bcl-2 Mean. Sens: unit not given here
# Description: as §3, §4
# [4] = test system: AML stem/progenitor cells from primary AML; assay: Mass cytometry (CyTOF) of intracellular signaling proteins; type: cell-based
# Description: Mononuclear cells from primary AML were treated with cobimetinib at 1.0 μM for 2 hrs followed by 10 minutes plus or minus stimulation with G-CSF (100 ng/ml). The SPADE tree was generated using markers including CD7, CD117, CD123, CD64, CD34, CD26, CD45, TIM3, CD33, CD19, CD56, CD2, CD15, CD41, CD38, CD166, CD3, CD90, CD11b, CD135 and HLA-DR. FIG. 4A depicts representative markers from among those markers tested. The grey-scale color represents the expression levels of each indicated protein. (FIG. 4A) Bcl-2 family members at baseline in the gated stem/progenitor AML cell populations (AML4295468: CD34+CD38+CD123+CD33+; AML 4366894: CD34+CD38-CD123+CD33+). (FIG. 4B) The median intensity of each protein in the gated cell populations mentioned above. (FIG. 4C) The intracellular signaling protein activation in the gated populations mentioned above.
# We next investigated signaling patterns and Bcl-2 family protein expression in AML stem/progenitor cells using a 34-antibody panel and time-of-flight mass cytometry (CyTOF). CyTOF is a variation of flow cytometry in which antibodies are labeled with heavy metal ion tags rather than fluorochromes. Readout is by time-of-flight mass spectrometry. This allows for the combination of many more antibody specificities in single samples, without significant spillover between channels. […] (FIG. 4A). […] To test the efficacy of both compounds in vivo, we injected NSG mice with genetically engineered OCI-AML3/Luc/GFP cells. […] (FIGS. 5A and 5B). To further explore the anti-leukemia efficacy of both compounds, we injected NSGS mice with genetically engineered […] cells.
# [5] = test system: AML cell lines; assay: CellTiter-Glo in vitro cytotoxicity / growth inhibition, 72 hrs; type: cell-based; details: MOLM14, OCI-AML3, NB4 and THP1
# Description: (FIG. 1A) The AML cell lines were treated with cobimetinib or venetoclax at 0.001, 0.01, 0.1 and 1.0 μM for 72 hrs. Calcusyn software was used to calculate the IC50 values and combination index (CI) based on the luminescent intensity that correlated with number of viable cells determined by the CellTiter-Glo assay.
# The activity of 4-(4-{[2-(4-chlorophenyl)-4,4-dimethylcyclohex-1-en-1-yl]methyl}piperazin-1-yl)-N-({3-nitro-4-[(tetrahydro-2H-pyran-4-ylmethyl)amino]phenyl}sulfonyl)-2-(1H-pyrrolo[2,3-b]pyridin-5-yloxy)benzamide (ABT-199, or venetoclax) and [3,4-Difluoro-2-(2-fluoro-4-iodoanilino)phenyl]{3-hydroxy-3-[(2S)-piperidin-2-yl]azetidin-1-yl}methanone (cobimetinib) was examined in a panel of myeloid leukemia cell lines with diverse genetic alterations.
# [6] = test system: primary AML blasts; assay: Long-term culture of primary AML blasts: apoptosis and growth inhibition by flow cytometry; type: cell-based; details: AML 4366894
# Description: (FIG. 2A) Primary AML peripheral blood mononuclear cells were cultured in serum-Free Expansion Medium (SFEM) supplemented with BIT 9500 Serum Substitute and cytokines including stem cell factor (100 ng/ml), Flt3 ligand (50 ng/ml), IL-3 (20 ng/ml) and G-CSF (20 ng/ml) as well as SRI (1 μM). After culture for 5 days, cells were stained with CD45-PE, Annexin-V-APC and DAPI−. The apoptotic leukemia blasts (CD45dimAnnexin-V+) were determined by flow cytometry. Results were expressed as percentage of specific apoptosis calculated by the formula: 100×(% apoptosis of treated cells−% apoptosis of control cells)/(100−% apoptosis of control cells), or % growth inhibition of control using the viable cell counts determined by Annexin-/DAPI. […] MNCs isolated from patients with AML (100,000) or healthy donors (50,000) were plated in methylcellulose medium (1 mL/well; Cat. 04435; [sequence] Technologies Inc., Vancouver, BC, Canada) in triplicate per condition. Colonies were scored after 2 weeks of culture.
# [7] = test system: MOLM13-luci-GFP cells; assay: MOLM13-luci-GFP AML model in NSGS mice; type: in vivo; details: cobimetinib 10 mg/kg, venetoclax 100 mg/kg orally daily for 14 days, compared to controls, more prominently in venetoclax and co-treated mice
# Description: as §1, §2
# [8] = cell lines resistant to cobimetinib
# [9] = cell lines sensitive to cobimetinib
# [10] = cell lines resistant to venetoclax
# [11] = cell lines sensitive to venetoclax
# T1 sequence (P10415 whole entry, one chain of several): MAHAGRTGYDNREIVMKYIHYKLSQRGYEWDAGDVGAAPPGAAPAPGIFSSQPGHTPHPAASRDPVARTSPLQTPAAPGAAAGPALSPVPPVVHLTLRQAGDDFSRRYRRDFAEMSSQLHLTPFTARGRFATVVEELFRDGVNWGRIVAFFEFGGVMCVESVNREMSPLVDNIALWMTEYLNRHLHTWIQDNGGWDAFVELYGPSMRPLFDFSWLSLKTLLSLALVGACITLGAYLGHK
smiles,measurement,setting,value
"O=C(c1ccc(F)c(F)c1Nc1ccc(I)cc1F)N1CC(O)([C@@H]2CCCCN2)C1 [cobimetinib, [3,4-difluoro-2-(2-fluoro-4-iodoanilino)phenyl]{3-hydroxy-3-[(2S)-piperidin-2-yl]azetidin-1-yl}methanone]",leukemia burden by bioluminescent imaging (BLI),[1],significantly reduced leukemia burden
same,Bcl-2:BIM complex,[2]; AML cell lines,but not cobimetinib disrupted
same,Bcl-2:BIM complex,[2]; OCI-AML3 cells,accumulated
same,Bax Mean. Res,[3]; [8],1.010
same,Bim Mean. Res,[3]; [8],0.893
same,ERK 1/2 (T202/Y204) Mean. Res,[3]; [8],1.073
same,FLT3 (Y589/591) Mean. Res,[3]; [8],0.948
same,PTEN (S380) Mean. Res,[3]; [8],1.049
same,PTEN Mean. Res,[3]; [8],1.013
same,RSK3 (T356/S360) Mean. Res,[3]; [8],0.859
same,S6 (S235/236) Mean. Res,[3]; [8],0.748
same,p16INK4a Mean. Res,[3]; [8],2.220
same,p38MAP (T180/Y182) Mean. Res,[3]; [8],0.983
same,p53 Mean. Res,[3]; [8],0.939
same,Bax Mean. Sens,[3]; [9],1.307
same,Bim Mean. Sens,[3]; [9],1.175
same,ERK 1/2 (T202/Y204) Mean. Sens,[3]; [9],1.988
same,FLT3 (Y589/591) Mean. Sens,[3]; [9],1.256
same,PTEN (S380) Mean. Sens,[3]; [9],1.335
same,PTEN Mean. Sens,[3]; [9],1.361
same,RSK3 (T356/S360) Mean. Sens,[3]; [9],1.495
same,S6 (S235/236) Mean. Sens,[3]; [9],1.174
same,p16INK4a Mean. Sens,[3]; [9],1.184
same,p38MAP (T180/Y182) Mean. Sens,[3]; [9],1.275
same,p53 Mean. Sens,[3]; [9],1.373
same,G-CSF-evoked p-STAT3/5,"[4]; AML 4295468, 1.0 μM for 2 hrs",only slightly reduced
same,SCF-induced p-AKT,"[4]; AML 4295468, 1.0 μM for 2 hrs",only slightly reduced
same,basal and G-CSF- or SCF-stimulated p-ERK,"[4]; AML 4295468, 1.0 μM for 2 hrs",efficiently down-regulated
same,G-CSF-induced p-STAT3/5,"[4]; AML 4366894, 1.0 μM for 2 hrs",not significantly changed
same,p-ERK,"[4]; AML 4366894, 1.0 μM for 2 hrs",also reduced
same,phosphorylation of STATS pathway,"[4]; primary AML, 1.0 μM for 2 hrs",increased phosphorylation
"CC1(C)CCC(CN2CCN(c3ccc(C(=O)NS(=O)(=O)c4ccc(NCC5CCOCC5)c([N+](=O)[O-])c4)c(Oc4cnc5[nH]ccc5c4)c3)CC2)=C(c2ccc(Cl)cc2)C1 [venetoclax, 4-(4-{[2-(4-chlorophenyl)-4,4-dimethylcyclohex-1-en-1-yl]methyl}piperazin-1-yl)-N-({3-nitro-4-[(tetrahydro-2H-pyran-4-ylmethyl)amino]phenyl}sulfonyl)-2-(1H-pyrrolo[2,3-b]pyridin-5-yloxy)benzamide]",Bcl-2:BIM complex,[2]; AML cell lines,disrupted by venetoclax in most cell lines
same,Bax Mean. Res,[3]; [10],0.958
same,Bcl-2 Mean. Res,[3]; [10],0.817
same,Bim Mean. Res,[3]; [10],1.143
same,PTEN (S380) Mean. Res,[3]; [10],0.839
same,PTEN Mean. Res,[3]; [10],0.704
same,S6 (S240/244) Mean. Res,[3]; [10],1.918
same,bRaf (T401) Mean. Res,[3]; [10],1.263
same,p16INK4a Mean. Res,[3]; [10],1.989
same,Bax Mean. Sens,[3]; [11],1.227
same,Bcl-2 Mean. Sens,[3]; [11],1.081
same,Bim Mean. Sens,[3]; [11],0.811
same,PTEN (S380) Mean. Sens,[3]; [11],1.369
same,PTEN Mean. Sens,[3]; [11],1.495
same,S6 (S240/244) Mean. Sens,[3]; [11],1.571
same,bRaf (T401) Mean. Sens,[3]; [11],0.927
same,p16INK4a Mean. Sens,[3]; [11],1.593
same,sensitivity of cell lines to single agent,[5],resistant
same,sensitivity of primary AML sample,[6],resistant
same,leukemia burden by bioluminescent imaging,[7],significantly reduced leukemia burden
